Assay in all cases: Kinetic determination with purified enzyme, NADH cofactor, initial rates (microtiter plate)
Common to all, as to type: biochemical

Assay [1] deals with T1, 2,5-diketo-D-gluconic acid reductase A (Corynebacterium sp., wild type SEQ ID NO:1) variant K232M (Corynebacterium sp., UniProt P06632, K232M).
T1 construct: GroES fragment (N); made in house; host or cells: E. coli JM109
How it is done:
(§1) The activities of the purified enzymes were assayed in 96-well microtiter plates on a plate reader.
(§2) Equation (1) is: [formula]
(§3) B=2,5-diketo-D-gluconic acid concentration;
(§4) Kb=Michaelis Constant for 2,5-diketo-D-gluconic acid;
(§5) Et=Total enzyme concentration.
(§6) This equation is only valid when B<<Kb.
(§7) Cells containing plasmids for some of the mutant reductases were grown up on a 1 liter scale using a 10 ml inoculum from a saturated overnight culture. The cells were grown until absorbance of the culture at 600 nm was approximately 1.0. The cells were then induced by adding IPTG to a final concentration of 1 mM. The cells were harvested after growth at 37° C. for 4 hours. The cells were then pelleted by centrifugation and frozen for later use. At a later date, cells were thawed and lysed with the Bug Buster detergent (Novagen) containing Complete Protease Inhibitor Cocktail Tablets (Roche). The pH was lowered to 5.5 with 20 mM sodium acetate (NaOAc) and NaCl was added to a final concentration of 0.15 M. After 10 minutes with the detergent, the cell debris was removed by centrifugation, and the supernatant was loaded onto disposable chromatography columns containing a 10 ml bed volume of DEAE Cellulose (Sigma) for a batch weak ion exchange step. The resin was washed with 0.15 M NaCl, still in the presence of NaOAc, pH 5.5. The bound proteins were then eluted by two washes with 0.5 M NaCl.

Assay [2] deals with T2, 2,5-diketo-D-gluconic acid reductase A (Corynebacterium sp., wild type SEQ ID NO:1) variant K232Q (Corynebacterium sp., UniProt P06632, K232Q).
T2 construct: GroES fragment (N); made in house; host or cells: E. coli JM109
T2 sequence (P06632 whole entry K232Q, the tested form may be a part): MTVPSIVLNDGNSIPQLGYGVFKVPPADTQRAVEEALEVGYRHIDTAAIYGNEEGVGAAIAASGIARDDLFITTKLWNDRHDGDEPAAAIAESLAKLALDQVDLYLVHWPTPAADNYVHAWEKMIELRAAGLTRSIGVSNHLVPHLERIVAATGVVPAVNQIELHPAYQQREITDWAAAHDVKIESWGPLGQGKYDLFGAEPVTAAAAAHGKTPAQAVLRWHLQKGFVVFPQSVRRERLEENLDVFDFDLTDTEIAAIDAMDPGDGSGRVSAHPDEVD
How it is done:
as §1, §2, §3, §4, §5, §6, §7

Assay [3] concerns the target T3, 2,5-diketo-D-gluconic acid reductase A (Corynebacterium sp., wild type SEQ ID NO:1) variant K232G (Corynebacterium sp., UniProt P06632, K232G).
T3 construct: GroES fragment (N); made in house; host or cells: E. coli JM109
How it is done:
as §1, §2, §3, §4
(§8) Kia=Dissociation Constant for NADH;
as §5
(§9) However, the parameters could not be fit in this model with any accuracy, due to the large apparent value of KM for 2,5-diketo-D-gluconic acid, and the low concentration of 2,5-diketo-D-gluconic acid that was used. The 2,5-diketo-D-gluconic acid concentrations were not large enough to saturate the enzyme, so a further mathematical simplification was required. Preliminary fitting of the model indicated both kcat and Kb to be very large in comparison to Ka and Kia Therefore, the rate equation was simplified to the following equation (2): [formula]
as §6
(§10) This equation was then used to fit the kinetic data, with much better results.
(§11) Other comparisons can also be made between the different mutants using these parameters. […]
as §7, with “NaCl. The eluted material was then diluted back to 0.15 M NaCl by the addition of more 20 mM NaOAc buffer. This was then loaded onto a 4.6 mmD/100mml PEEK column (PerSeptive Biosystems) containing 50 μm DEAE Ceramic HyperD F resin (BioSepra) using an FPLC system. The high performance resin was washed with 0.1 M NaCl and the bound proteins were eluted using a linear salt gradient up to 0.4 M NaCl. Active fractions were pooled and the pH was raised to 7.0 using 50 mM bis-Tris. The pooled fractions were then concentrated by ultrafiltration in a stirred cell unit using a polyethersulfone membrane with a 10,000 MW cut-off (Millipore). The concentrate was loaded onto a Superdex-75 gel filtration column (Pharmacia) using 50 mM bis-Tris pH 7.0 with an FPLC system. The active fractions were again pooled. A small sample from the pooled fractions was electrophoresed on a polyacrylamide gel in the presence of SDS in order to insure homogeneity of the final product.” for “NaCl.”
(§12) NADPH and NADH were prepared fresh for each use in kinetic measurements. These reactions were performed in 96-well microtiter plates using a SpectraMax 190 plate reader (Molecular Devices). Varying amounts of cofactor and substrate were added to the wells and reaction was initiated by the addition of the mutant enzyme. The final volume of each reaction was 200 μl, the reactions were buffered with 50 mM bis-Tris pH 7.0, and the temperature was held at 25° C. […] Initial rate data was collected in each well, and a standard curve was generated each day in order to correlate the change in absorbance of the reaction to a change in concentration of cofactors. All measurements were performed in triplicate (at least) and the runs were averaged for use in kinetic modeling.

Assay [4] concerns the target T4, 2,5-diketo-D-gluconic acid reductase A (Corynebacterium sp., wild type SEQ ID NO:1) variant K232S (Corynebacterium sp., UniProt P06632, K232S).
T4 construct: GroES fragment (N); made in house; host or cells: E. coli JM109
How it is done: as §1, §2, §3, §4, §8, §5, §9, §6, §10, §11
as §7, with “NaCl. The eluted material was then diluted back to 0.15 M NaCl by the addition of more 20 mM NaOAc buffer. This was then loaded onto a 4.6 mmD/100mml PEEK column (PerSeptive Biosystems) containing 50 μm DEAE Ceramic HyperD F resin (BioSepra) using an FPLC system. The high performance resin was washed with 0.1 M NaCl and the bound proteins were eluted using a linear salt gradient up to 0.4 M NaCl. Active fractions were pooled and the pH was raised to 7.0 using 50 mM bis-Tris. The pooled fractions were then concentrated by ultrafiltration in a stirred cell unit using a polyethersulfone membrane with a 10,000 MW cut-off (Millipore). The concentrate was loaded onto a Superdex-75 gel filtration column (Pharmacia) using 50 mM bis-Tris pH 7.0 with an FPLC system. The active fractions were again pooled. A small sample from the pooled fractions was electrophoresed on a polyacrylamide gel in the presence of SDS in order to insure homogeneity of the final product.” for “NaCl.”
as §12

Assay [5] deals with T5, 2,5-diketo-D-gluconic acid reductase A (Corynebacterium sp., wild type SEQ ID NO:1) variant R235G (Corynebacterium sp., UniProt P06632, R235G).
T5 construct: GroES fragment (N); made in house; host or cells: E. coli JM109
T5 sequence (P06632 whole entry R235G, the tested form may be a part): as the sequence (P06632 whole entry K232Q, the tested form may be a part) above, with Q232K, R235G counted along it
How it is done:
as §1, §2, §3, §4, §8, §5, §9, §6, §10, §11
as §7, with “NaCl. The eluted material was then diluted back to 0.15 M NaCl by the addition of more 20 mM NaOAc buffer. This was then loaded onto a 4.6 mmD/100mml PEEK column (PerSeptive Biosystems) containing 50 μm DEAE Ceramic HyperD F resin (BioSepra) using an FPLC system. The high performance resin was washed with 0.1 M NaCl and the bound proteins were eluted using a linear salt gradient up to 0.4 M NaCl. Active fractions were pooled and the pH was raised to 7.0 using 50 mM bis-Tris. The pooled fractions were then concentrated by ultrafiltration in a stirred cell unit using a polyethersulfone membrane with a 10,000 MW cut-off (Millipore). The concentrate was loaded onto a Superdex-75 gel filtration column (Pharmacia) using 50 mM bis-Tris pH 7.0 with an FPLC system. The active fractions were again pooled. A small sample from the pooled fractions was electrophoresed on a polyacrylamide gel in the presence of SDS in order to insure homogeneity of the final product.” for “NaCl.”
as §12

In assay [6] the target is T6, 2,5-diketo-D-gluconic acid reductase A (Corynebacterium sp., wild type SEQ ID NO:1) variant R235T (Corynebacterium sp., UniProt P06632, R235T).
T6 construct: GroES fragment (N); made in house; host or cells: E. coli JM109
T6 sequence (P06632 whole entry R235T, the tested form may be a part): as the sequence (P06632 whole entry K232Q, the tested form may be a part) above, with Q232K, R235T counted along it
How it is done:
as §1, §2, §3, §4, §8, §5, §9, §6, §10, §11
as §7, with “NaCl. The eluted material was then diluted back to 0.15 M NaCl by the addition of more 20 mM NaOAc buffer. This was then loaded onto a 4.6 mmD/100mml PEEK column (PerSeptive Biosystems) containing 50 μm DEAE Ceramic HyperD F resin (BioSepra) using an FPLC system. The high performance resin was washed with 0.1 M NaCl and the bound proteins were eluted using a linear salt gradient up to 0.4 M NaCl. Active fractions were pooled and the pH was raised to 7.0 using 50 mM bis-Tris. The pooled fractions were then concentrated by ultrafiltration in a stirred cell unit using a polyethersulfone membrane with a 10,000 MW cut-off (Millipore). The concentrate was loaded onto a Superdex-75 gel filtration column (Pharmacia) using 50 mM bis-Tris pH 7.0 with an FPLC system. The active fractions were again pooled. A small sample from the pooled fractions was electrophoresed on a polyacrylamide gel in the presence of SDS in order to insure homogeneity of the final product.” for “NaCl.”
as §12

[7] abbreviates: kcat/Ka apparent with NADH, relative to wild type.
[8] abbreviates: versus wild type, NADH as varied substrate.

T3 sequence (P06632 whole entry K232G, the tested form may be a part): as the sequence (P06632 whole entry K232Q, the tested form may be a part) above, with Q232G counted along it
T4 sequence (P06632 whole entry K232S, the tested form may be a part): as the sequence (P06632 whole entry K232Q, the tested form may be a part) above, with Q232S counted along it
T1 sequence (P06632 whole entry K232M, the tested form may be a part): as the sequence (P06632 whole entry K232Q, the tested form may be a part) above, with Q232M counted along it

For orientation: Kd means the equilibrium constant for the complex coming apart. Read a low Kd as tighter binding. On to `NC(=O)C1=CN([C@@H]2O[C@H](COP(=O)(O)OP(=O)(O)OC[C@H]3O[C@@H](n4cnc5c(N)ncnc54)[C@H](O)[C@@H]3O)[C@@H](O)[C@H]2O)C=CC1` [NADH], for which the Kd in assay [1] stood at 3.89 ± 0.23 mM; in assay [2] it was 3.87 ± 0.34 mM; in assay [3] it was 2.02 ± 0.12 mM; in assay [4], 2.82 ± 0.27 mM; in assay [5], 8.42 ± 0.69 mM; in assay [6], 8.84 ± 2.28 mM. Further, the “(kcat/KbKia)/(kcat/KbKia)wt” value worked out at 0.55 in assay [1] (setting [7]); 0.59 in assay [2] (setting [7]); 1.55 in assay [3] (setting [7]); 0.40 in assay [4] (setting [7]); 1.53 in assay [5] (setting [7]). In addition, the “Kia/(Kia)wt” value in assay [3] (relative to wild type, NADH) is 0.78; in assay [4] (relative to wild type, NADH), 1.08; in assay [5] (relative to wild type, NADH), 3.24. Further, the “increase of apparent Ka” value in assay [5] (setting [8]) is “more than 3 fold”. Further, in assay [5] (setting [8]), the “increase of apparent kcat” value is 5 fold.
